For 13 compounds, IC50 and Ratio IC50 results are on record in ChEMBL document CHEMBL4402529, “Immunoproteasome-selective inhibitors: An overview of recent developments as potential drugs for hematologic malignancies and autoimmune diseases” (Eur J Med Chem, 2019).

The target of test [1] is T1, Proteasome subunit beta type-8 (Homo sapiens, UniProt P28062).
T1 sequence (P28062 whole entry): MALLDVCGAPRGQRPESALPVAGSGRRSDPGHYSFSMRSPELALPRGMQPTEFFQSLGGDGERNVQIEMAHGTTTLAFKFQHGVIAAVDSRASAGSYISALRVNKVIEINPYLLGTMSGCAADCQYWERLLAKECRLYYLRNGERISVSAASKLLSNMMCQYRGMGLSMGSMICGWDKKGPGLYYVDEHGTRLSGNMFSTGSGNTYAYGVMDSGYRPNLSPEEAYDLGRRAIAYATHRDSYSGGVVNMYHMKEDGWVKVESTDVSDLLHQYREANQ
Put plainly: Inhibition of human 20S proteasome beta 5i.

Test [2] addresses T2, Proteasome Macropain subunit MB1 (Homo sapiens, UniProt P28074).
T2 sequence (P28074 whole entry): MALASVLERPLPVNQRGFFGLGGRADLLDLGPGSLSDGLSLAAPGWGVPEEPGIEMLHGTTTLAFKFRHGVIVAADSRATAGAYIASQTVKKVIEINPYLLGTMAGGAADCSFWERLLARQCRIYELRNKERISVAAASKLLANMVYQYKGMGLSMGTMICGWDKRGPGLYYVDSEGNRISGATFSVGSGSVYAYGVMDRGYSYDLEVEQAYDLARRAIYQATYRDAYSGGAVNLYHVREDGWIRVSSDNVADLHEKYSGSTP
Put plainly: Inhibition of human 20S proteasome beta 5c.

For test [3], the species on record is Homo sapiens. Put plainly: Selectivity index, ratio of IC50 for human 20S proteasome beta 5c to IC50 for human 20S proteasome beta 5i.
The species named for test [4] is Homo sapiens. Briefly: Selectivity index, ratio of IC50 for 20S proteasome beta 5c (unknown origin) to IC50 for 20S proteasome beta 5i (unknown origin).
Test [5] has as its target T2, Proteasome Macropain subunit MB1. Briefly: Inhibition of 20S proteasome beta 5c (unknown origin) after 1 hr by cell based assay.
Test [6] has as its target T1, Proteasome subunit beta type-8. Briefly: Inhibition of 20S proteasome beta 5i (unknown origin) after 1 hr by cell based assay.
The species named for test [7] is Homo sapiens. Put plainly: Selectivity index, ratio of IC50 for 20S proteasome beta 1c (unknown origin) to IC50 for 20S proteasome beta 1i (unknown origin).
The target of test [8] is T3, Proteasome subunit beta type-10 (Homo sapiens, UniProt P40306).
T3 sequence (P40306 whole entry): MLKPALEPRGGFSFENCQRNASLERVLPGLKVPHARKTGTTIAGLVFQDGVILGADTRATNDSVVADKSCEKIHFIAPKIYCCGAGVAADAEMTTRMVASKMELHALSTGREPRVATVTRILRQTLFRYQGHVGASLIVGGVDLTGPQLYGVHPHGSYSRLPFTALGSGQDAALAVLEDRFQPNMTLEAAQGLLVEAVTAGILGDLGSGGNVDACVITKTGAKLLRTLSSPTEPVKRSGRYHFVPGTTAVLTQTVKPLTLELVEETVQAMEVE
Put plainly: Inhibition of 20S proteasome beta 2i (unknown origin) after 1 hr by fluorescence based assay.

Test [9] concerns the target T2, Proteasome Macropain subunit MB1. Put plainly: Inhibition of 20S proteasome beta 5c (unknown origin) after 1 hr by fluorescence based assay.
Test [10] concerns the target T1, Proteasome subunit beta type-8. Put plainly: Inhibition of 20S proteasome beta 5i (unknown origin) after 1 hr by fluorescence based assay.
For test [11], the target named is T4, Proteasome subunit beta type-9 (Homo sapiens, UniProt P28065).
T4 sequence (P28065 whole entry): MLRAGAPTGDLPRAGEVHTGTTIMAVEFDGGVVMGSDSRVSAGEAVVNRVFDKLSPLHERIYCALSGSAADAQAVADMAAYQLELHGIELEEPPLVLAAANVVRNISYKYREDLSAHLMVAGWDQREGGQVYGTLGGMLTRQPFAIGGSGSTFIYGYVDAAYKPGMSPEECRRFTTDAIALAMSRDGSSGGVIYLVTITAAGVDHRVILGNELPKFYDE
Put plainly: Inhibition of 20S proteasome beta 1i (unknown origin) after 1 hr by fluorescence based assay.

Test [12] is filed under the species Homo sapiens. Put plainly: Selectivity index, ratio of IC50 for 20S proteasome beta 2c (unknown origin) to IC50 for 20S proteasome beta 2i (unknown origin).
The nature of test [13]: Inhibition of 20S proteasome beta 2c (unknown origin).
Test [14] concerns the target T4, Proteasome subunit beta type-9. Put plainly: Inhibition of 20S proteasome beta 1i (unknown origin).

As to `Cc1c(CCC(=O)O)c(=O)oc2cc3occ(-c4ccccc4)c3cc12`, the 50% inhibitory concentration (IC50) – broadly, the concentration that inhibits the measured activity by half – was 1600 nM in test [1] and 172000 nM in test [2]. For the same compound, the Ratio IC50 in the test filed under Homo sapiens [3] amounted to 108.

As to `CC(C)(C)NC(=O)C[C@H](NS(=O)(=O)C1CC1)C(=O)NCCNC(=O)c1cc(-c2ccccc2F)ccc1F`, the Ratio IC50 in the test filed under Homo sapiens [4] amounted to 64.

`Cc1c(Cc2nsc(=O)o2)c(=O)oc2cc3occ(-c4ccccc4)c3cc12`: the half-maximal inhibitory concentration (IC50) in test [1] turned out to be 120 nM. Moreover, the Ratio IC50 in the test listed under Homo sapiens [3] is more than 80.

In the case of `C[C@@H](CC(=O)NCc1cccc2ccccc12)NC(=O)[C@H](CC(=O)NC(C)(C)C)NC(=O)CCc1ccccc1`, the IC50 in test [5] amounted to 76000 nM; in [6], 57 nM. Besides, the Ratio IC50 in the test listed under Homo sapiens [4] is 1330.

With `Cc1ccc(S(=O)(=O)N[C@@H](CC(=O)NC(C)(C)C)C(=O)NCCNC(=O)c2cc(-c3ccccc3F)ccc2F)cc1`, the Ratio IC50 in the test listed under Homo sapiens [4] is 28.

Consider `COc1ccc(C[C@H](NC(=O)[C@@H](C)NC(=O)[C@H]2CC[C@H](O)CC2)C(=O)N[C@@H](CC2=CCCC2)C(=O)[C@@]2(C)CO2)cc1`, for which the figures for the Ratio IC50 in the test filed under Homo sapiens [4] and in the test filed under Homo sapiens [7] were 79 and more than 14, respectively.

Take `Cc1ccc(S(=O)(=O)N[C@H](CC(=O)N[C@@H](C)C(=O)NCc2cccc3ccccc23)CC(=O)NC(C)(C)C)cc1`: the results for the IC50 in test [5] and in [6] were 78200 nM and 14 nM, respectively. In addition, the Ratio IC50 in the test listed under Homo sapiens [4] came to 5600.

As to `Cc1c(CCC(=O)ON2C(=O)CCC2=O)c(=O)oc2cc3occ(-c4ccccc4)c3cc12`, the IC50 in test [1] came to 9 nM; in test [2] it was 220 nM. Also, in the test listed under Homo sapiens [3], the Ratio IC50 was determined as 24.

As for `CC(C)C[C@H](NC(=O)[C@@H](NC(=O)c1cccc(-c2ccccc2)n1)[C@@H](C)O)B(O)O` [DELANZOMIB], the IC50 fell in the range of 10 to 30 nM in test [8], 3 to 20 nM in test [9], 3 to 20 nM in test [10] and 1 to 3 nM in test [11].

Take `COc1ccc([C@@H](O)[C@H](NC(=O)[C@H](C)NC(=O)CN2CCOCC2)C(=O)N[C@@H](CC2=CCCC2)C(=O)[C@@]2(C)CO2)cc1` [ZETOMIPZOMIB]: the IC50 in test [9] was 688 nM; in [10], 39 nM. Further, the Ratio IC50 in the test filed under Homo sapiens [12] is more than 80.9; in the test listed under Homo sapiens [4], 17.6; in the test listed under Homo sapiens [7], 0.97.

On to `Cc1ccc(S(=O)(=O)N[C@@H](CC(=O)NC(C)(C)C)C(=O)N[C@@H](C)CC(=O)NCc2cccc3ccccc23)cc1`, for which the IC50 in test [5] is 74900 nM; in test [6] it was 5.5 nM. In the test listed under Homo sapiens [4], the Ratio IC50 was found to be 13600.

Take `CC(C)C[C@H](NC(=O)CN1CCCCCC1)C(=O)N[C@@H](Cc1ccccc1)C(=O)N[C@@H](Cc1ccccc1)C(=O)[C@@]1(C)CO1`: the IC50 in [13] turned out to be 81 nM; in test [14], 425 nM. The values for the Ratio IC50 in the test filed under Homo sapiens [4] and in the test filed under Homo sapiens [7] were 0.8 and more than 602, respectively.

For `Cc1c(C2CCCC2)c(=O)oc2cc3occ(-c4ccccc4)c3cc12`, the IC50 in [1] came out at 13 nM; in test [2], 1070 nM. The Ratio IC50 in the test listed under Homo sapiens [3] came out at 83.
